The subject of series [1] is Candida albicans IFM40009. Put plainly: Persistence of orally administered Candida microorganism in the intestinal tract of mice (viable cell count in cecum and colon). The series is classed as in vivo. The conditions noted are these: mouse, 100 mg/animal oral once a day for two weeks, 1 week after forcible administration of Candida suspension. The text has this:
A Candida microorganism was given forcibly via an oral administration to a mouse on diet with the oligosacchride containing α-galactosyl obtained in EXAMPLE 3 to test the persistence of the Candida microorganism in an intestinal tract, whereby assessing the anti-candida effect of the oligosacchride containing α-galactosyl.
(Methods) A test mouse was a 4-week old male mouse of Crj:CD-1 (ICR) line (NIPPON CHARLES RIVER). A preliminary housing was provided to the animal for 1 week while being allowed to access a basal diet and a distilled water ad libitum. The basal diet was a solid chow for mice (MF: ORIENTAL YEAST). After the preliminary housing, the basal diet and the distilled water were given ad libitum continuously, and a control group fed with a sucrose, a positive control group fed with a raffinose, and a treatment group fed with an oligosacchride containing α-galactosyl were provided (5 animals per group) to conduct a forcible oral administration at 100 mg/animal via an oral gavage for two weeks on a once-a-day basis. […]
The viable cell of the Candida microorganism was counted by applying a Candida microorganism suspension diluted appropriately with a physiological saline onto a Candida GS (EIKEN KAGAKU) plate medium and incubating at 37° C. for 42 to 48 hours followed by counting the colonies formed. […]

The conditions of series [2]: cited from earlier work.
Series [3] relates to Candida microorganism. Particulars: in vitro and in vivo; cited from earlier work.
Series [4] concerns the target toxin produced by Clostridium difficile (Clostridioides difficile, UniProt P16154). The conditions noted are these: cited from earlier work.
In series [5] the test system is pathogenic E.coli 0157. Particulars: cited from earlier work.

With `OC[C@H]1O[C@H](OC[C@H]2O[C@H](O[C@]3(CO)O[C@H](CO)[C@@H](O)[C@@H]3O)[C@H](O)[C@@H](O)[C@@H]2O)[C@H](O)[C@@H](O)[C@H]1O` [raffinose], in series [1], the “viable cell count of Candida microorganism in the cecum” value is on record as “not changed”. In series [1] (compared with sucrose control group), the “viable cell count of Candida microorganism in the colon” value is recorded as “lower”. Also, the “effect on atopic dermatitis” value in series [2] (in vivo) is on record as “exerted an effect”. In addition, the “side effects observed with an antifungal agent (transient exacerbation of rash, digestive organ signs)” value in series [2] (oral administration) was “does not cause side effects”. In series [3], the “effects on a Candida microorganism” value is “inhibitory and eradicative effects”.

As for `OC[C@H]1O[C@H](O[C@@H]2[C@@H](O)[C@@H](O)O[C@H](CO)[C@@H]2O)[C@H](O)[C@@H](O)[C@H]1O` [α-1,3-galactobiose], the “effect on toxin produced by Clostridium difficile” value in series [4] is listed as “neutralizing effect”.

Take `OC[C@H]1O[C@H](O[C@@H]2[C@H](O)[C@@H](O)C(O)O[C@@H]2CO)[C@H](O)[C@@H](O)[C@H]1O` (stereo partly drawn) [α-1,4 galactobiose]: the “effect on pathogenic E.coli 0157” value in series [5] was “inhibitory and therapeutic effect”.

Source of the values: US7491518B2, “Method of elevating yield of oligosaccharides containing α-galactosyl and anti-candida compositions” (Amano Enzyme Inc., priority 2000, dated 2009).
